In ChEMBL document CHEMBL5143750, “Bisubstrate Inhibitors of Severe Acute Respiratory Syndrome Coronavirus-2 Nsp14 Methyltransferase” (ACS Med Chem Lett, 2022):
pEC50: −log10 of the molar value.

Tests used:
[1] = test system: SARS-CoV-2; test: Antiviral activity against SARS-CoV-2 infected in human A549 cells overexpressing ACE2 and TMPRSS2 assessed as reduction in viral growth incubated for 48 hrs by DAPI staining based immunofluorescence assay; assay type: functional, organism-based; conditions: Severe acute respiratory syndrome coronavirus 2, A549, 48 h
[2] = test system: SARS-CoV-2; test: Antiviral activity against SARS-CoV-2 infected in human A549 cells overexpressing ACE2 and TMPRSS2 assessed as inhibition of viral growth at 50 uM incubated for 48 hrs by DAPI staining based immunofluorescence assay; assay type: functional; conditions: Severe acute respiratory syndrome coronavirus 2, A549
[3] = Therapeutic index, ratio of CC50 for cytotoxicity against human A549 cells overexpressing ACE2 and TMPRSS2 to EC50 for antiviral activity against SARS-CoV-2 infected in human A549 cells overexpressing ACE2 and TMPRSS2 assessed as reduction in viral growth; assay type: toxicity, cell-based; conditions: read-out: Ratio CC50/EC50

| SMILES | pEC50 [1] | inhibition at 50 µM [2] [%] | selectivity ratio [3] |
| --- | --- | --- | --- |
| CC(C)C(=O)O[C@@H]1[C@H](OC(=O)C(C)C)[C@@H](CNS(=O)(=O)c2ccc3ccccc3c2)O[C@H]1n1cnc2c(N)ncnc21 | 4.01 |  |  |
| CC(=O)Nc1ncnc2c1ncn2[C@@H]1O[C@H](CNS(=O)(=O)c2ccc3ccccc3c2)[C@@H](O)[C@H]1O |  | < 15 |  |
| Nc1ncnc2c1ncn2[C@@H]1O[C@H](CNS(=O)(=O)c2ccc3ccccc3c2)[C@@H](O)[C@H]1O |  | < 15 |  |
| Nc1ncnc2c1ncn2[C@@H]1O[C@H](CNC(=O)c2ccc3ccccc3c2)[C@@H](O)[C@H]1O |  | < 15 |  |
| Nc1ncnc2c1ncn2[C@@H]1O[C@H](CNCc2ccc3ccccc3c2)[C@@H](O)[C@H]1O |  | < 15 |  |
| CC(=O)O[C@@H]1[C@H](OC(C)=O)[C@@H](CNS(=O)(=O)c2ccc3ccccc3c2)O[C@H]1c1ccc2c(N)ncnn12 | 5.37 |  |  |
| Nc1ncnn2c([C@@H]3O[C@H](CNS(=O)(=O)c4ccc5ccccc5c4)[C@@H](O)[C@H]3O)ccc12 | 6.14 |  | > 139 |
| CC(=O)O[C@@H]1[C@H](OC(C)=O)[C@@H](CNS(=O)(=O)c2ccc3ccccc3c2)O[C@H]1n1cnc2c(N)ncnc21 | 4.28 |  |  |
| Nc1ncnc2c1ncn2[C@@H]1O[C@H](CNS(=O)(=O)c2ccc3nc(Cl)ccc3c2)[C@@H](O)[C@H]1O |  | < 15 |  |
| Nc1ncnc2c1ncn2[C@@H]1O[C@H](CNS(=O)(=O)c2ccc3cccnc3c2)[C@@H](O)[C@H]1O |  | < 15 |  |
| CC(=O)Nc1ncnc2c1ncn2[C@@H]1O[C@H](CNS(=O)(=O)c2ccc3ccccc3c2)[C@@H](OC(C)=O)[C@H]1OC(C)=O | 4.21 |  |  |
| Nc1ncnc2c1ncn2[C@@H]1O[C@H](C[C@@H](N)CC[C@H](N)C(=O)O)[C@@H](O)[C@H]1O [SINEFUNGIN] |  | < 15 |  |
